Data reported in patent US7462735B2, “Amino acid diamides in non α position which are useful as adjuvants for administration of biological active agents” (Laboratorios Farmaceuticos Rovi, S.A., priority 2003, dated 2008).

What was measured:
[1] = Intracolonic absorption of bemiparin in the rat, with or without adjuvant (plasma anti-Xa activity); format: in vivo; details: for effect on colonic absorption of bemiparin measured by plasma anti-Xa activity: adjuvant given with bemiparin, result in words; for anti-Xa activity/ml in plasma: 30 mg/kg bemiparin (+ 30 mg/kg adjuvant)
From the text: The properties of the invention products have been investigated in an experimental model described below that consists of measuring the intracolonic absorption in the rat of a low-molecular-weight heparin, bemiparin, with a mean molecular mass of around 3,500 daltons and an anti-Xa activity of around 100 units/mg.
The activity of all compounds of the examples described above was studied in animals according to the following experimental model:
Evaluate the absorption of the test product when administered by intracolonic route to rats, whether or not in the presence of adjuvants. The plasma concentration is measured by assaying the Factor Xa-inhibition capacity. The rat is used because it is one of the species commonly used in this type of test.
One intracolonic administration.
25% (v/v) propylene glycol in bidistilled water. After dissolving the test product along with the adjuvant if applicable, adjust the pH to approximately 7.4 with NaOH.
The animals will be in fasted state for approximately 18 h with free access to water
The animals will be randomized to the various experimental groups, with one remaining animal as a reserve per group:
On the day of the test, the treatments will be administered by intracolonic route, following anaesthesia with ketamine. Administration will be done using a catheter of approximately 8 cm, connected to a 1-ml syringe. The catheter will be introduced in its entirety into the colon through the anus and the test product will be administered slowly into the colon.
Following the administration of the test product, within the times established in the table, a citrated blood sample (3.8% at a ratio of 1:9) will be drawn by intracardiac puncture under anaesthesia with ketamine.
Blood centrifugation: 3000 rpm, 10 minutes, 4° C. Plasma freezing (−20±5° C.) until determining the anti-Factor Xa activity.
A control group that will receive no treatment will be included, simply that one blood sample will be drawn per animal under the same conditions as the treatment group, with considered to be the baseline value of anti-Xa activity.
The anti-Xa activity will be assayed by the chromogenic method (anti-FXa activity assay kit).
The mean, the standard deviation […] and the standard error of the mean of each experimental group will be calculated for each parameter. If considered adequate, the values obtained in the different experimental groups will be compared by a statistical analysis.

[2] = tested on: Factor Xa; test: Anti-Xa activity of the heparin material (units/mg); format: biochemical; details: specific activity of the heparin material

Compound	melting point	other results
O=C(O)CCCNC(=O)c1ccc(NC(=O)c2ccccc2O)cc1 [Example 1, 4-[4-(hydroxybenzoylamino)benzoylamino]butanoic acid]	211 to 213 °C	effect on colonic absorption of bemiparin measured by plasma anti-Xa activity [1]: no effect
O=C(O)CCCCCNC(=O)c1ccc(NC(=O)c2ccccc2O)cc1 [Example 2, 6-[4-(2-hydroxybenzoylamino)benzoylamino]hexanoic acid]	201 to 203 °C	effect on colonic absorption of bemiparin measured by plasma anti-Xa activity [1]: no effect
O=C(O)CCCNC(=O)c1cccc(NC(=O)c2ccccc2O)c1 [Example 3, 4-[3-(2-hydroxybenzoylamino)benzoylamino]butanoic acid]	172 to 174 °C	effect on colonic absorption of bemiparin measured by plasma anti-Xa activity [1]: no effect
O=C(O)CCCNC(=O)c1ccccc1NC(=O)c1ccccc1O [Example 4, 4-[2-(2-hydroxybenzoylamino)benzoylamino]butanoic acid]	173 to 174 °C	effect on colonic absorption of bemiparin measured by plasma anti-Xa activity [1]: strong increase
O=C(O)CCCCNC(=O)c1ccccc1NC(=O)c1ccccc1O [Example 5, 5-[2-(2-hydroxybenzoylamino)benzoylamino]pentanoic acid]	168 to 170 °C	–
O=C(O)CCCCCCCNC(=O)c1ccccc1NC(=O)c1ccccc1O [Example 6, 8-[2-(2-hydroxybenzoylamino)benzoylamino]octanoic acid]	124 to 125 °C	–
O=C(O)CCCCCNC(=O)c1ccccc1NC(=O)c1ccccc1O [Example 7, 6-[2-(2-hydroxybenzoylamino)benzoylamino]hexanoic acid]	165 to 167 °C	–
O=C(O)CCCNC(=O)c1ccccc1NC(=O)c1ccccc1[N+](=O)[O-] [Example 8, 4-[2-(2-nitrobenzoylamino)benzoylamino]butanoic acid]	142 to 144 °C	–
O=C(O)CCNC(=O)c1ccccc1NC(=O)c1ccccc1O [Example 9, 3-[2-(2-hydroxybenzoylamino)benzoylamino]propanoic acid]	200 to 202 °C	–
O=C(O)CCCNC(=O)c1ccccc1NC(=O)c1ccc([N+](=O)[O-])cc1O [Example 11, 4-[2-(2-hydroxy-4-nitrobenzoylamino)benzoylamino]butanoic acid]	209 to 211 °C	effect on colonic absorption of bemiparin measured by plasma anti-Xa activity [1]: strong increase
O=C(O)CCCNC(=O)c1ccccc1NC(=O)c1cc([N+](=O)[O-])ccc1O [Example 12, 4-[2-(2-hydroxy-5-nitrobenzoylamino)benzoylamino]butanoic acid]	239 to 241 °C	–
COc1ccc(C(=O)Nc2ccccc2C(=O)NCCCC(=O)O)c(O)c1 [Example 13, 4-[2-(2-hydroxy-4-methoxybenzoylamino)benzoylamino]butanoic acid]	201 to 203 °C	–
COc1ccc(O)c(C(=O)Nc2ccccc2C(=O)NCCCC(=O)O)c1 [Example 14, 4-[2-(2-hydroxy-5-methoxybenzoylamino)benzoylamino]butanoic acid]	191 to 193 °C	–
O=C(O)CCCNC(=O)c1ccccc1NC(=O)c1ccc([N+](=O)[O-])cc1 [Example 15, 4-[2-(4-nitrobenzoylamino)benzoylamino]butanoic acid]	206 to 208 °C	–
COc1ccc(C(=O)Nc2ccccc2C(=O)NCCCC(=O)O)cc1 [Example 16, 4-[2-(4-methoxybenzoilamino)benzoilamino]butanoic acid]	172 to 174 °C	–
O=C(O)CCCNC(=O)c1ccccc1NC(=O)c1ccc(Cl)cc1 [Example 17, 4-[2-(4-chlorobenzoylamino)benzoylamino]butanoic acid]	182 to 184 °C	effect on colonic absorption of bemiparin measured by plasma anti-Xa activity [1]: strong increase
O=C(O)CCCNC(=O)c1ccccc1NC(=O)c1ccc(Cl)cc1O [Example 18, 4-[2-(4-chloro-2-hydroxybenzoylamino)benzoylamino]butanoic acid]	205 to 206 °C	–
O=C(O)CCCNC(=O)c1ccccc1NC(=O)c1cc(Cl)ccc1O [Example 19, 4-[2-(5-chloro-2-hydroxybenzoylamino)benzoylamino]butanoic acid]	222 to 223 °C	–
O=C(O)CCCNC(=O)c1ccccc1NC(=O)c1ccccc1Cl [Example 20, 4-[2-(2-chlorobenzoylamino)benzoylamino]butanoic acid]	110 to 112 °C	–
O=C(O)CCCNC(=O)c1ccccc1NC(=O)c1ccccc1Br [Example 21, 4-[2-(2-bromobenzoylamino)benzoylamino]butanoic acid]	117 to 118 °C	–
O=C(O)CCCNC(=O)c1ccccc1NC(=O)c1cccc(Cl)c1 [Example 22, 4-[2-(3-chlorobenzoylamino)benzoylamino]butanoic acid]	165 to 166 °C	–
Bemiparin	–	anti-Xa activity/ml in plasma ([1]; 0.5 h post-administration): 0.103; anti-Xa activity/ml in plasma ([1]; 2 h post-administration): 0.222; anti-Xa activity/ml in plasma ([1]; 4 h post-administration): 0.345; anti-Xa activity [2]: around 100 units/mg
